Data reported in patent US20260078089A1, “BIOACTIVE PHYTOCHEMICALS IN ZIZYPHUS AND GUARANA” (Phytoquest Limited, priority 2018, published 2026).

Legend:
[1] = biological target: T1, α-D-galactosidase (Coffea arabica, UniProt Q42656); test: Glycosidase assay, p-nitrophenyl substrate; assay type: biochemical; details: Green coffee bean enzyme; screened at 0.14 mg mL−1 (footnote: 0.4 mM)
T1 construct: purchased Sigma Aldrich Chemicals Limited
Experimental: (§1) Glycosidase assays were conducted as described by Watson et al. (Phytochemistry 1997, 46, 255) using p-nitrophenyl-substrates (except sialidase which used methylumbeliferyl-N-acetyineuraminic acid as substrate). Assays were carried out in microtitre plates. Enzymes were assayed in 0.1 M citric acid/0.2 M di-sodium hydrogen phosphate (McIlvaine) buffers at the optimum pH for the enzyme. All assays were carried out at 20° C. All enzymes and substrates were purchased from Sigma Aldrich Chemicals Limited. The incubation mixture consisted of 10 μl of enzyme solution, 10 μl of the iminosugars solution and 50 μl of the appropriate 5 mM p-nitrophenyl substrate made up in McIlvaine buffer at the optimum pH for the enzyme. The reactions were stopped with 0.4 M glycine (pH 10.4) during the exponential phase of the reaction. Absorbances were read at 405 nm. Water was substituted for the alkaloids in the blanks. Reactions were carried out in triplicate.
(§2) Enzyme inhibitor solutions—Compounds were dissolved in distilled water at a concentration of 1 mg mL^−1 and then screened at a concentration of 0.14 mg mL^−1 after dilution of the 1 mg mL^−1 in the assay volumes of substrates.

[2] = biological target: T2, α-D-glucosidase (Oryza sativa subsp. japonica, UniProt Q653V7); test: Glycosidase assay, p-nitrophenyl substrate; assay type: biochemical; details: Rice enzyme; screened at 0.14 mg mL−1 (footnote: 0.4 mM)
T2 construct: purchased Sigma Aldrich Chemicals Limited
Experimental: as §1, §2

[3] = biological target: T3, N-acetyl-β-D-hexosaminidase (Aspergillus oryzae, UniProt Q8J2T0); test: Glycosidase assay, p-nitrophenyl substrate; assay type: biochemical; details: Aspergillus oryzae enzyme; screened at 0.14 mg mL−1 (footnote: 0.4 mM)
T3 construct: purchased Sigma Aldrich Chemicals Limited
Experimental: as §1, §2

[4] = biological target: T4, α-D-mannosidase (Canavalia ensiformis, UniProt C0HJB3); test: Glycosidase assay, p-nitrophenyl substrate; assay type: biochemical; details: Jack bean enzyme; screened at 0.14 mg mL−1 (footnote: 0.4 mM)
T4 construct: purchased Sigma Aldrich Chemicals Limited
T4 sequence (C0HJB3 1-981): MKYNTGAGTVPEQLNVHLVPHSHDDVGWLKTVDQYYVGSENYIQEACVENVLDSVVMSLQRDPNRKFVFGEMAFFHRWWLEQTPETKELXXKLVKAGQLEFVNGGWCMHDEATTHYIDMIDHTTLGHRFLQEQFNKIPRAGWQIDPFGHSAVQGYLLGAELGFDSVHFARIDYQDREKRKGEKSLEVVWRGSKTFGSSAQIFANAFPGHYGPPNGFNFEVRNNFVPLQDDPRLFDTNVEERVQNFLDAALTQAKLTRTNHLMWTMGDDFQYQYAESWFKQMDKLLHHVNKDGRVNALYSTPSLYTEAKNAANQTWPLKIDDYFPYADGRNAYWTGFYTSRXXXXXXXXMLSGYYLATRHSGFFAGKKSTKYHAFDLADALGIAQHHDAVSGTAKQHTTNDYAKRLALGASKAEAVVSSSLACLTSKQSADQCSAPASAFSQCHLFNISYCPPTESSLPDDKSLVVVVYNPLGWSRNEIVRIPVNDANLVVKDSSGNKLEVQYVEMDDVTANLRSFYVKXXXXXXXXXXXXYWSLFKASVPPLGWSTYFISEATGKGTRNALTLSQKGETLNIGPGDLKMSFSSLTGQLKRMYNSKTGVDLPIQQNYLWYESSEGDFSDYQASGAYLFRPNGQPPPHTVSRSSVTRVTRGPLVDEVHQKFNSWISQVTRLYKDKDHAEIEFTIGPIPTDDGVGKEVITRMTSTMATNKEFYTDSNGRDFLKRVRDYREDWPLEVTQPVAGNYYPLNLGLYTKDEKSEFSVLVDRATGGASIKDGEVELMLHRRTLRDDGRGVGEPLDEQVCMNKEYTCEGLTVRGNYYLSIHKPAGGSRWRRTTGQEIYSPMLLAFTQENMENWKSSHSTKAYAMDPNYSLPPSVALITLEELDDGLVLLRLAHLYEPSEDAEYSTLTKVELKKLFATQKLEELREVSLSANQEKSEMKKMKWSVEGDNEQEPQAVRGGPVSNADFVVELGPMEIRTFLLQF
Experimental: as §1, §2

[5] = biological target: T5, α-D-glucosidase (Saccharomyces cerevisiae, UniProt P53341); test: Glycosidase assay, p-nitrophenyl substrate; assay type: biochemical; details: Saccharomyces cerevisiae enzyme; screened at 0.14 mg mL−1 (footnote: 0.4 mM); 20° C
T5 construct: purchased Sigma Aldrich Chemicals Limited
Experimental: as §1, §2

[6] = biological target: T6, α-L-fucosidase (Bos taurus, UniProt Q2KIM0); test: Glycosidase assay, p-nitrophenyl substrate; assay type: biochemical; details: Bovine kidney enzyme; screened at 0.14 mg mL−1 (footnote: 0.4 mM)
T6 construct: purchased Sigma Aldrich Chemicals Limited
T6 sequence (Q2KIM0 23-468): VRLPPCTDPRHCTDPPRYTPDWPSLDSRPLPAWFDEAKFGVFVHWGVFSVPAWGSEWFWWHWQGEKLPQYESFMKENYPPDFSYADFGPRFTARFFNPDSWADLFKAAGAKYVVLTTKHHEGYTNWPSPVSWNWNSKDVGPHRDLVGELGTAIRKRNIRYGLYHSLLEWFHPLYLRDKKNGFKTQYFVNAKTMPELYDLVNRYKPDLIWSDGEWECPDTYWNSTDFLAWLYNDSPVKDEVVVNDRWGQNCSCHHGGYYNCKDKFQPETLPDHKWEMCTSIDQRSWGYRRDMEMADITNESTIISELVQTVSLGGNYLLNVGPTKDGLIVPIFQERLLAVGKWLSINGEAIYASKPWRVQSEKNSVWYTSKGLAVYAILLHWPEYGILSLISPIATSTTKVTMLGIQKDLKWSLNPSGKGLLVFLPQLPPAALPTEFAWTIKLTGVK
Experimental: as §1, §2

[7] = tested on: male ddy mouse; test: Maltose loading test, blood glucose in mice; assay type: in vivo; details: oral maltose 2.5 g/kg, test sample 500 mg/kg body weight, mean n = 5
Experimental: (§3) The animal experimental protocols in this study were approved by the Animal Experiments Committee of the University of Toyama (S-2010 UH-2). Male ddy mice (29-33 g) after an overnight fast were used for acute disaccharide loading tests. Maltose (2.5 g/kg body weight) or Sucrose (2.5 g/kg body weight) as well as the test samples were dissolved in 0.9% NaCl solution and administered to mice via a stomach tube. A control group was loaded with saline only.
(§4) Blood samples for glucose measurements were obtained from the tail vein at 0, 15, 30, 60, and 120 min after disaccharide-loading. The blood glucose levels were measured by a portable kit, Antsence II™ (Sankyo Co. Ltd. Tokyo, Japan). The Zizyphus extract HS0810/142/41 as well as the purified compounds were tested in this way.

[8] = tested on: male ddy mouse; test: Sucrose loading test, blood glucose in mice; assay type: in vivo; details: oral sucrose 2.5 g/kg, test sample 500 mg/kg body weight, mean n = 5
Experimental: as §3, §4

[9] = tested on: N-acetyl-β-D-glucosaminidase; test: Glycosidase assay, p-nitrophenyl substrate; assay type: biochemical; details: screened at 0.14 mg mL−1 (footnote: 0.4 mM)
Experimental: as §1, §2

[10] = tested on: β-D-glucosidase; test: Glycosidase assay, p-nitrophenyl substrate; assay type: biochemical; details: Almond enzyme; screened at 0.14 mg mL−1 (footnote: 0.4 mM)
Experimental: as §1, §2

[11] = tested on: β-D-mannosidase; test: Glycosidase assay, p-nitrophenyl substrate; assay type: biochemical; details: Cellullomonas fimi enzyme; screened at 0.14 mg mL−1 (footnote: 0.4 mM)
Experimental: as §1, §2

[12] = tested on: α-D-glucosidase; test: Glycosidase assay, p-nitrophenyl substrate; assay type: biochemical; details: Bacillus sterothermphilus enzyme; screened at 0.14 mg mL−1 (footnote: 0.4 mM)
Experimental: as §1, §2

[13] = biological target: T7, Amyloglucosidase (Aspergillus niger, UniProt P69328); test: Glycosidase assay, p-nitrophenyl substrate; assay type: biochemical; details: Aspergillus niger enzyme; screened at 0.14 mg mL−1 (footnote: 0.4 mM)
T7 construct: purchased Sigma Aldrich Chemicals Limited
Experimental: as §1, §2

[14] = tested on: β-D-galactosidase; test: Glycosidase assay, p-nitrophenyl substrate; assay type: biochemical; details: Bovine liver enzyme; screened at 0.14 mg mL−1 (footnote: 0.4 mM)
Experimental: as §1, §2

[15] = tested on: Naringinase; test: Glycosidase assay, p-nitrophenyl substrate; assay type: biochemical; details: Penicillium decumbens enzyme; screened at 0.14 mg mL−1 (footnote: 0.4 mM)
Experimental: as §1, §2

[16] = tested on: sialidase (NanH from T. forsythia); test: Sialidase assay with MUNANA substrate; assay type: biochemical, Tannerella forsythia; details: 1 mM inhibitor, 2.5 nM sialidase, 0.1 mM MUNANA, pH 7.2
Experimental: (§5) Sialidase assays used 1 mM inhibitor (or water without inhibitor) and 2.5 nM sialidase (including NanH from T. forsythia) incubated in the presence of 0.1 mM methylumbeliferyl-N-acetylneuraminic acid, pH 7.2 in 20 mM sodium phosphate buffer. Reactions were stopped at 30 seconds and 60 seconds via addition of ph 10.5 60 mM sodium carbonate buffer. Release of fluorogenic MU was quantified by measuring fluorescence emission at 450 nm, excitation 350 nm. Percentage sialidase activity was expressed as the change in fluorescence between 30 seconds and 60 seconds compared to that of a reaction without inhibitor. Reactions were carried out in triplicate.
MU release can be used to quantify sialidase activity.
as §5, with “1” for “Sialidase assays used 1”, “forsythia) was” for “forsythia)”, “MUNANA,” for “methylumbeliferyl-N-acetylneuraminic acid,”, “7.2” for “7.2 in”, “Sodium Phosphate” for “sodium phosphate”

[17] = tested on: glucosidases; test: Glycosidase panel, glucosidases overall; assay type: biochemical; details: panel of glucosidases
Experimental: Glycosidase assays were conducted on Compounds 1 and 3 and an extract of Zizyphus used in the disaccharide loading mouse studies to determine if glucosidase inhibition might explain the effects on blood glucose. A panel of glycosidases were used to be sure any activity found was a selective inhibition and not just non-specific binding to the enzyme.
as §1, with “triplicate. […]” for “triplicate.”

T3 sequence (Q8J2T0 97-600): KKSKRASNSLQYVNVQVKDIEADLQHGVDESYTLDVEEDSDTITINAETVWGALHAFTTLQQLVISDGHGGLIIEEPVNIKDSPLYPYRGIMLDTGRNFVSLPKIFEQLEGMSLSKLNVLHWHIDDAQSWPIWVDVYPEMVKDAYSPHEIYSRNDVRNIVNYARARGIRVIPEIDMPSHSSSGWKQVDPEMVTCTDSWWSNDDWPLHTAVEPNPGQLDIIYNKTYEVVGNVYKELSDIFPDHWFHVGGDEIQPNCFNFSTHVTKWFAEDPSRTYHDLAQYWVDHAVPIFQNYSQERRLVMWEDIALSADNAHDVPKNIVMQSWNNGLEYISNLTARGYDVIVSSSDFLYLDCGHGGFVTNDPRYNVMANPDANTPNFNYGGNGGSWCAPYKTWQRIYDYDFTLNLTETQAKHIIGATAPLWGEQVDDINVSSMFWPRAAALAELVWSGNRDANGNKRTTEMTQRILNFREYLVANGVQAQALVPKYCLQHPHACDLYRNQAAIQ
T5 sequence (P53341 whole entry): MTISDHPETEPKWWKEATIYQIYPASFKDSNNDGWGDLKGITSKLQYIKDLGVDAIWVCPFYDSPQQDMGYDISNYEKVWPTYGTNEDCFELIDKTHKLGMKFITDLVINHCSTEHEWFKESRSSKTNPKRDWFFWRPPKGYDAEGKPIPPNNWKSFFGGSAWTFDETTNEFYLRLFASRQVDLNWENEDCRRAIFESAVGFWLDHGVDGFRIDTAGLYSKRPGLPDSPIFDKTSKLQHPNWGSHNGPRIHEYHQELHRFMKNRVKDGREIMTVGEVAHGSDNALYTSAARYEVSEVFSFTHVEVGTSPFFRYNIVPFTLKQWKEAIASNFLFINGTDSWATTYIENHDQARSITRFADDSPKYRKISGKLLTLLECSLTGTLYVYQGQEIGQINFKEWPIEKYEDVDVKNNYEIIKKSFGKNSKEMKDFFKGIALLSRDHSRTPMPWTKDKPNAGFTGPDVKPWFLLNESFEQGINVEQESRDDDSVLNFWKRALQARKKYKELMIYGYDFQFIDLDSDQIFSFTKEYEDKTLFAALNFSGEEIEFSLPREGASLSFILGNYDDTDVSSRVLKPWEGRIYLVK
T2 sequence (Q653V7 34-885): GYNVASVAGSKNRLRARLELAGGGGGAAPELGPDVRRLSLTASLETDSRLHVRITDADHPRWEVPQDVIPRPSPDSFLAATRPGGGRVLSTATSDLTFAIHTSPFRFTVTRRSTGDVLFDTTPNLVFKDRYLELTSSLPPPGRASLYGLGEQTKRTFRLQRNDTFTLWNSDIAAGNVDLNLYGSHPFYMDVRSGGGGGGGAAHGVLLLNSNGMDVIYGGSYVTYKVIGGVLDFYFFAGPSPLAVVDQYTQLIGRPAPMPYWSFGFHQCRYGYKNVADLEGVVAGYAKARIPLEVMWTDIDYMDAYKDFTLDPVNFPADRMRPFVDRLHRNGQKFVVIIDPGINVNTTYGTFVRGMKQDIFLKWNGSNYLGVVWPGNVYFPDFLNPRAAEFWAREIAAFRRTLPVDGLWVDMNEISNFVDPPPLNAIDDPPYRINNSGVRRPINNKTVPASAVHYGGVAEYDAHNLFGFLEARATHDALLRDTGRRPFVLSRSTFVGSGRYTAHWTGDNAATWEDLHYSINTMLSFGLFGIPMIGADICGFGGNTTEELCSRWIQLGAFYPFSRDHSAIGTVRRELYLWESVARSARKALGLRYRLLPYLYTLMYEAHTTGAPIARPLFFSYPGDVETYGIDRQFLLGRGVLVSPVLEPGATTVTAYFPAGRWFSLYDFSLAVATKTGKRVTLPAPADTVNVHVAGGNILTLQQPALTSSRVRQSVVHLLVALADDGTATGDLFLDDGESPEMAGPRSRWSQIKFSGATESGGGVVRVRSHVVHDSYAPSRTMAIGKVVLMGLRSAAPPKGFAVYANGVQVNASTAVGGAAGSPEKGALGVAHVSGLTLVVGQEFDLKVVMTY
T1 sequence (Q42656 16-378): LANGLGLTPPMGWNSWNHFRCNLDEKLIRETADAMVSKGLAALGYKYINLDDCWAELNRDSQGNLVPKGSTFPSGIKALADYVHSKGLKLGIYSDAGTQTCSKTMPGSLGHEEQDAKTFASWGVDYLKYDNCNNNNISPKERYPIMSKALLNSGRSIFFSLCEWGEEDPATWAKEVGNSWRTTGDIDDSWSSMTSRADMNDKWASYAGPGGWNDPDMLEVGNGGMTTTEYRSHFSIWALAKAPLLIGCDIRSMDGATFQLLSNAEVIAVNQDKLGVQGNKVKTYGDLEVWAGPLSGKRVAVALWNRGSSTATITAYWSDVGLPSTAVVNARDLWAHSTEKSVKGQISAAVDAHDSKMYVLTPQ
T7 sequence (P69328 25-640): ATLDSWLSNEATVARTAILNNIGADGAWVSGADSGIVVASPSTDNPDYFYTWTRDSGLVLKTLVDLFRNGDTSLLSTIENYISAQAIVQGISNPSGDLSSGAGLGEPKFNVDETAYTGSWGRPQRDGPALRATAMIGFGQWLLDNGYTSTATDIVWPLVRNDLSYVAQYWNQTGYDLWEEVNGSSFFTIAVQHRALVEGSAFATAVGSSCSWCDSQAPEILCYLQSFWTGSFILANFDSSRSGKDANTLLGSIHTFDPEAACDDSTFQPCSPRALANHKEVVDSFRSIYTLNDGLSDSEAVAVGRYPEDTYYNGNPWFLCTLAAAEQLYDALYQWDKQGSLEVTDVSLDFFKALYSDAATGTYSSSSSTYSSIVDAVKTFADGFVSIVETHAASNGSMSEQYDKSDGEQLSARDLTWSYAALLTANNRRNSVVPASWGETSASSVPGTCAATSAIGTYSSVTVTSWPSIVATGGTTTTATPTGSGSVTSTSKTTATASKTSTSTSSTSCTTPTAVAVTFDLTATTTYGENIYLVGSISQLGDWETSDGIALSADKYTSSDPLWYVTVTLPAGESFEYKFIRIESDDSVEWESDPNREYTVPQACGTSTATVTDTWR

| SMILES | % inhibition [1] [%] | % inhibition [2] [%] | % inhibition [3] [%] | % inhibition [4] [%] | % inhibition [5] [%] | % inhibition [6] [%] | blood glucose ([7]; 0 min after administration) [mg/dL] | blood glucose ([7]; 15 min after administration) [mg/dL] | blood glucose ([7]; 30 min after administration) [mg/dL] | blood glucose ([7]; 60 min after administration) [mg/dL] | blood glucose ([7]; 120 min after administration) [mg/dL] | also measured |
| --- | --- | --- | --- | --- | --- | --- | --- | --- | --- | --- | --- | --- |
| CN1C[C@@H](CO)C[C@H]1C(=O)O [Compound 1, N-methyl-4S-(hydroxymethyl)-2S-pyrrolidinecarboxylic acid] | <5 | 5 | −6 | 18 | <5 | 15 | 83 | 231 | 187 | 140 | 74 |  |
| CN1C[C@](O)(CO)C[C@H]1C(=O)O [Compound 3, N-methyl-4-hydroxy-4S-(hydroxymethyl)-2S-pyrrolidinecarboxylic acid] | <5 | 11 | −6 | 6 | <5 |  | 83 | 233 | 185 | 130 | 80 | blood glucose ([8]; 0 min after administration): 109 mg/dL; blood glucose ([8]; 15 min after administration): 183 mg/dL; blood glucose ([8]; 30 min after administration): 143 mg/dL; blood glucose ([8]; 60 min after administration): 106 mg/dL; blood glucose ([8]; 120 min after administration): 80 mg/dL |
| OC[C@H]1NC[C@H](O)[C@@H](O)[C@@H]1O [DNJ, 1-deoxynojirimycin] | −3.34 | 99.56 | −5.50 | 26.65 | 35.67 | 5.86 |  |  |  |  |  | % inhibition ([9]; Bovine kidney enzyme): −0.83%; % inhibition ([9]; Jack bean enzyme): 2.76%; % inhibition [10]: 63.7%; % inhibition [11]: −19.03%; % inhibition [12]: 99.48%; % inhibition [13]: 31.71%; % inhibition [14]: 0.45%; % inhibition [15]: 20.81%; % inhibition [16]: 2%; glucosidase inhibition (in words) [17]: expected strong inhibition of various glucosidases |
